Test results as given in patent US11084809B2, “N-((HET)arylmethyl)-heteroaryl-carboxamides compounds as kallikrein inhibitors” (KALVISTA PHARMACEUTICALS LIMITED, priority 2014, dated 2021).

Columns and labels:
Assay type in all cases: biochemical
[1] = molecular target: Human KLK1 (Homo sapiens (Human), UniProt P06870); experiment: Determination of the IC50 for KLK1; details: human KLK1, 25° C., substrate H-DVal-Leu-Arg-AFC
Method: Determination of the IC50 for KLK1
(§1) Human KLK1 (Callbiochem) was incubated at 25° C. with the fluorogenic substrate H-DVal-Leu-Arg-AFC and various concentrations of the test compound. Residual enzyme activity (initial rate of reaction) was determined by measuring the change in […] at 410 nm and the IC50 value for the test compound was determined.

[2] = molecular target: Human XIa (Homo sapiens (Human), UniProt P03951); experiment: Determination of the % inhibition for XIa; details: 40 μM test compound, 25° C.
Method: Determination of the % Inhibition for XIa
Human XIa (Enzyme Research Laboratories) was incubated at 25° C. with the fluorogenic substrate Z-Gly-Pro-Arg-AFC and 40 μM of the test compound. Residual enzyme activity (initial rate of reaction) was determined by measuring the change in optical absorbance at 410 nm.

[3] = molecular target: Human plasma kallikrein (Homo sapiens (Human), UniProt P03952); experiment: Determination of the IC50 for plasma kallikrein; details: read-out: IC50 (human PKal)
Method: Determination of the IC50 for plasma kallikrein
as §1, with “plasma kallikrein (Protogen)” for “KLK1 (Callbiochem)”, “H-DPro-Phe-Arg-AFC” for “H-DVal-Leu-Arg-AFC”

Chain of Human XIa (P03951 388-625): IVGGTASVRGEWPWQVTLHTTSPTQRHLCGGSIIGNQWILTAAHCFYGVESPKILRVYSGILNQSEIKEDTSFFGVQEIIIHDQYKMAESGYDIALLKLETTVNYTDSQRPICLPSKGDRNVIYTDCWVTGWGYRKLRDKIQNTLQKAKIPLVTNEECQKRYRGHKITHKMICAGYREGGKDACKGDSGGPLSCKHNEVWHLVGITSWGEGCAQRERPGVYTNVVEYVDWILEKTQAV
Chain of Human XIa (P03951 19-387 partner): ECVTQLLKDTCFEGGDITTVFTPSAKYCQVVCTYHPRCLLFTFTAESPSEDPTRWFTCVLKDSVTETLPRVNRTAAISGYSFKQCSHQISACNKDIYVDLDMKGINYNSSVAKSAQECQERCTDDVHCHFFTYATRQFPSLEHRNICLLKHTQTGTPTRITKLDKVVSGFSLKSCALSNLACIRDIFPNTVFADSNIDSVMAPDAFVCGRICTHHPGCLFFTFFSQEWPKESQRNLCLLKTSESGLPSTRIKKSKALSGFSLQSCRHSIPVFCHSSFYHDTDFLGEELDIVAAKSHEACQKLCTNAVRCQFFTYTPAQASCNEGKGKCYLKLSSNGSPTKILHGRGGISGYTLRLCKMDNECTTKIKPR
Chain of Human KLK1 (P06870 25-262): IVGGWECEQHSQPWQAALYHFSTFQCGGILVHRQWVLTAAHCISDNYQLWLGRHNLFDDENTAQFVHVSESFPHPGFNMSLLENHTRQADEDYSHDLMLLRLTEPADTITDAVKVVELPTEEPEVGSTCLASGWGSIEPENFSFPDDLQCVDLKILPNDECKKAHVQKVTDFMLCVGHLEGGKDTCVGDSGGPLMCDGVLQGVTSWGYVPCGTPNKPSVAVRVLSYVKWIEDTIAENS
Chain of Human plasma kallikrein (P03952 391-638): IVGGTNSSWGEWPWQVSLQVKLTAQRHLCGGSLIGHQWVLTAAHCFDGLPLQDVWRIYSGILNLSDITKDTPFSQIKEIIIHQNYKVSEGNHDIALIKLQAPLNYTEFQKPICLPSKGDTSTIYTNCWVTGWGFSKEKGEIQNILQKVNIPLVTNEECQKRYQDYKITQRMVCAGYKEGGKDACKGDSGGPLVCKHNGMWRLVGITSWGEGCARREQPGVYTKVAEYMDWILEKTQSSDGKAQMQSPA
Chain of Human plasma kallikrein (P03952 20-390 partner): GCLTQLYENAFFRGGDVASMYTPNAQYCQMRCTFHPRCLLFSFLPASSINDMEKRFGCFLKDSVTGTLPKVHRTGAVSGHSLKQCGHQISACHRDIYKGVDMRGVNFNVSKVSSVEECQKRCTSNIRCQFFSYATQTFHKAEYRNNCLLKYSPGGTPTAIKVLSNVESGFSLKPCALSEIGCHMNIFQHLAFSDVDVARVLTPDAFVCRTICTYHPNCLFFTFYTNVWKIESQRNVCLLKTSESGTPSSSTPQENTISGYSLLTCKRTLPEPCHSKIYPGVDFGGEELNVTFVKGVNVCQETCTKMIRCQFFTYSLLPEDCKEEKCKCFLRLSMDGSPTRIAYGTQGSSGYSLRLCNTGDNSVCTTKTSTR

Row | Compound | IC50 [1] [nM] | % Inhibition @ 40 μM (human FXIa) [2] [%] | IC50 [3] [nM]
1 | CCOc1cccc(CNC(=O)c2cn(Cc3ccc(Cn4cc(C)cn4)cc3)nc2C(F)(F)F)c1 [Example 6, N-[(3-ethoxyphenyl)methyl]-1-({4-[(4-methylpyrazol-1-yl)methyl]phenyl}methyl)-3-(trifluoromethyl)pyrazole-4-carboxamide] | > 10000 | 0 | –
2 | NC(=O)c1cccc(CNC(=O)c2cn(Cc3ccc(Cn4ccccc4=O)cc3)nc2C2CC2)c1 [Example 49, N-[(3-carbamoylphenyl)methyl]-3-cyclopropyl-1-({4-[(2-oxopyridin-1-yl)methyl]phenyl}methyl)pyrazole-4-carboxamide] | – | 0 | –
3 | COc1cccc(CNC(=O)c2cn(Cc3ccc(Cn4ccccc4=O)cc3)nc2C2CC2)c1F [Example 52, 3-cyclopropyl-N-[(2-fluoro-3-methoxyphenyl)methyl]-1-({4-[(2-oxopyridin-1-yl)methyl]phenyl}methyl)pyrazole-4-carboxamide] | – | 1 | –
4 | Nc1nn(Cc2ccc(Cn3ccccc3=O)cc2)cc1C(=O)NCc1ccc(OC(F)(F)F)cc1 [Example 58, 3-amino-1-({4-[(2-oxopyridin-1-yl)methyl]phenyl}methyl)-N-{[4-(trifluoromethoxy)phenyl]methyl}pyrazole-4-carboxamide] | – | 0 | –
5 | N-[(2,4-dimethylphenyl)methyl]-1-({4-[(4-methylpyrazol-1-yl)methyl]phenyl}methyl)-3-(trifluoromethyl)pyrazole-4-carboxamide [Example 24] | > 10000 | – | 717
6 | N-[(2,6-dimethylphenyl)methyl]-1-({4-[(4-methylpyrazol-1-yl)methyl]phenyl}methyl)-3-(trifluoromethyl)pyrazole-4-carboxamide [Example 25] | > 10000 | – | 1840
